From PubChem BioAssay (NCI)
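Growth conditions: 96-well plates. Treatment: test compound, 48 hours, 5 concentrations. Analysis: linear interpolation between bracketing concentrations; unreached endpoints set to highest concentration. TGI marks complete inhibition of growth.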 Where a SMILES comes first, the peptide text is derived from it. [ ]: non-standard residue; d: D form. The star is where a group is joined. Cbz = O=C(OCc1ccccc1)*; Aib = CC(C)(N)C(=O)O; OBn = c1ccc(CO*)cc1

Columns and labels:
Test in all cases: DTP human tumour cell line panel, 48 h
[1] = system: NCI-H226 lung
[2] = system: PC-3 prostate
[3] = system: MDA-N
[4] = system: RPMI-8226 leukemia
[5] = system: SK-MEL-5 melanoma
[6] = system: LOX IMVI melanoma
[7] = system: M14 melanoma
[8] = system: SN12C renal
[9] = system: MDA-MB-435
[10] = system: COLO 205 colon
[11] = system: UACC-62 melanoma
[12] = system: HOP-92 NSCLC

SMILES | TGI [1] | TGI [2] | TGI [3] | TGI [4] | TGI [5] | TGI [6] | TGI [7] | TGI [8] | TGI [9] | TGI [10] | TGI [11] | TGI [12]
CC(NC(=O)C(C)(C)NC(=O)C(CC(=O)OCc1ccccc1)NC(=O)OCc1ccccc1)C(N)=O (configuration not stated) (Cbz-Asp(OBn)-[Aib]-Ala-NH2; configuration not given here) | > 100 µM | > 100 µM | > 100 µM | > 100 µM | > 100 µM | > 100 µM | > 100 µM | > 100 µM | > 100 µM | > 100 µM | > 100 µM | > 100 µM
CCOC(=O)c1c2cccccc-2nc1Nc1cccc2c(C)ccnc12 | > 10 µM | > 10 µM | > 10 µM | > 10 µM | > 10 µM | > 10 µM | > 10 µM | > 10 µM | > 10 µM | > 10 µM | > 10 µM | > 10 µM
COc1ccc(C(=O)NCCN(C)C)c2nc3ccccc3cc12 | 3.26 µM | 4.82 µM | 4.38 µM | 6.71 µM | 2.54 µM | 1.74 µM | 2.99 µM | 3.28 µM | 5.13 µM | 2.57 µM | 4.62 µM | 8.05 µM
O=C(CC(=O)Nc1ccccc1)NNC(Sc1ccccc1)c1cc(N=Nc2ccc(Br)cc2)ccc1O (configuration not stated) | 5.04 µM | > 10 µM | > 10 µM | > 10 µM | 4.6 µM | > 10 µM | 3.47 µM | > 10 µM | > 10 µM | > 10 µM | 9.81 µM | > 10 µM
CC(C)(C)OC(=O)NC(CSSCC(NC(=O)OC(C)(C)C)C(=O)O)C(=O)O (configuration not stated) | > 100 µM | > 100 µM | > 100 µM | > 100 µM | > 100 µM | > 100 µM | > 100 µM | > 100 µM | > 100 µM | > 100 µM | > 100 µM | > 100 µM
c1ccc(C2=NOC(c3ccccc3)N2C23CC4CC(CC(C4)C2)C3)cc1 (configuration not stated) | > 10 µM | > 10 µM | > 10 µM | > 10 µM | > 10 µM | > 10 µM | > 10 µM | > 10 µM | > 10 µM | > 10 µM | > 10 µM | > 10 µM
CC(C)Oc1cccc(N2C(=NCc3c[nH]c4ccccc34)Nc3ccncc3S2(=O)=O)c1 | > 100 µM | 83.4 µM | > 100 µM | 30 µM | 27.7 µM | > 100 µM | 62.6 µM | > 100 µM | > 100 µM | 29.4 µM | 93.5 µM | 56.6 µM
O=[N+]([O-])c1cc2oc(CSc3ccccc3)nc2cc1Cl | 91.1 µM | > 100 µM | > 100 µM | > 100 µM | 33.7 µM | > 100 µM | > 100 µM | > 100 µM | > 100 µM | 44.9 µM | > 100 µM | > 100 µM
CC1(C)C=CC(=O)C(O)C(C)(C)C1=O (configuration not stated) | > 100 µM | > 100 µM | > 100 µM | > 100 µM | > 100 µM | > 100 µM | > 100 µM | > 100 µM | > 100 µM | > 100 µM | > 100 µM | > 100 µM
Clc1ccc(C=NC23CC4CC(CC(C4)C2)C3)c(Cl)c1 | > 10 µM | > 10 µM | > 10 µM | > 10 µM | > 10 µM | > 10 µM | > 10 µM | > 10 µM | > 10 µM | > 10 µM | > 10 µM | > 10 µM
CCOC(=O)CC/C(=N/Nc1ccc(Cl)cc1[N+](=O)[O-])C(=O)OCC | > 100 µM | > 100 µM | > 100 µM | > 100 µM | > 100 µM | > 100 µM | > 100 µM | > 100 µM | > 100 µM | > 100 µM | > 100 µM | > 100 µM
CSc1nc2c(c(N(C)C)n1)C(O)n1c(nc3ccccc31)S2 (configuration not stated) | > 100 µM | > 100 µM | > 100 µM | > 100 µM | > 100 µM | 75.5 µM | > 100 µM | > 100 µM | > 100 µM | > 100 µM | > 100 µM | > 74.5 µM
CCOC(=O)C(NC(=O)CC)(N1CCN(c2cc3c(cc2F)c(=O)c(C(=O)O)cn3C2CC2)CC1)C(F)(F)F (configuration not stated) | > 100 µM | > 100 µM | > 100 µM | > 100 µM | > 100 µM | > 100 µM | > 100 µM | > 100 µM | > 100 µM | > 100 µM | > 100 µM | > 100 µM
Cc1nc2ccccc2c(-n2cccn2)c1CCn1cccn1 | > 100 µM | > 100 µM | > 100 µM | > 100 µM | > 100 µM | > 100 µM | > 100 µM | > 100 µM | > 100 µM | > 100 µM | > 100 µM | > 100 µM
O=C(c1ccccc1)c1ccc2c(c1)NC(=O)c1ccccc1SSc1ccccc1C(=O)N2 | > 100 µM | > 100 µM | > 100 µM | > 100 µM | > 100 µM | > 100 µM | > 100 µM | > 100 µM | > 100 µM | > 100 µM | > 100 µM | > 100 µM
OCCCc1ccc2c(c1)[C@H](CO)[C@@H](c1ccc(O)cc1)O2 | > 100 µM | > 100 µM | > 100 µM | > 100 µM | 32.7 µM | > 100 µM | > 100 µM | > 100 µM | > 100 µM | > 100 µM | > 100 µM | > 100 µM

SMILES | TGI [1] | TGI [2] | TGI [3] | TGI [4] | TGI [5] | TGI [6] | TGI [7] | TGI [8] | TGI [9] | TGI [10] | TGI [11] | TGI [12]
N#Cc1sc2c(c1OC(=O)c1ccc(C(F)(F)F)cc1)c(=O)n(-c1ccccc1)c(=S)n2-c1ccccc1 | 99.8 µM | > 100 µM | > 100 µM | 45.9 µM | 62.2 µM | 59.9 µM | 81.7 µM | 88.1 µM | 94.3 µM | 46.4 µM | 50.9 µM | 68.4 µM
Cc1cc(N(C)C)c2ccccc2[n+]1CCCCCCCCCC[n+]1c(C)cc(N(C)C)c2ccccc21 | > 100 µM | 7.48 µM | 2.73 µM | 4.33 µM | 1.07 µM | 3.24 µM | 12 µM | 4.72 µM | 3.26 µM | 6.07 µM | 3.35 µM | 5.44 µM
CC1OC(O[C@H]2C3C=CO[C@@H](OC4OC(CO)C(O)C(O)C4O)C3[C@@]3(COC(=O)/C=C/c4ccccc4)O[C@@H]23)C(O)C(O)C1O (some centres not stated) | > 100 µM | > 100 µM | > 100 µM | > 100 µM | > 100 µM | > 100 µM | > 100 µM | > 100 µM | > 100 µM | > 100 µM | > 100 µM | > 100 µM
C=CCn1c(=O)ccn(/C(=C/C(=O)OCC)C(=O)OCC)c1=O | > 31.6 µM | 27.9 µM | 31.3 µM | 31.4 µM | 29.1 µM | 18.1 µM | 28.1 µM | 25.2 µM | 26.2 µM | 3.97 µM | 29.7 µM | 9.15 µM
COc1ccc(-c2nc3ccccc3c(=S)n2OC(C)=O)cc1 | > 25 µM | > 25 µM | > 25 µM | > 25 µM | > 25 µM | > 25 µM | > 25 µM | > 25 µM | > 25 µM | > 25 µM | > 25 µM | > 25 µM
COc1cc(Nc2ccc3c(c2)CCC3)nc(OC)n1 | > 100 µM | > 100 µM | > 100 µM | 40.9 µM | 62.3 µM | > 100 µM | > 100 µM | > 100 µM | > 100 µM | > 100 µM | > 100 µM | > 100 µM
CN(C)Cc1cc(C(=O)/C=C/c2ccc([N+](=O)[O-])cc2)cc(CN(C)C)c1O | 19.2 µM | 33.9 µM | 24.7 µM | 6.98 µM | 23.4 µM | 5.5 µM | 23.3 µM | 20.2 µM | 37.3 µM | 4.67 µM | 33.3 µM | 26.2 µM
O=c1c2c(no[n+]2[O-])c2ccccc2n1-c1ccccc1 | 30.7 µM | 21.4 µM | 9.56 µM | 42.8 µM | 20 µM | 7.28 µM | 8.25 µM | 17.2 µM | 14.6 µM | 20.3 µM | 13.7 µM | 17.6 µM
Cc1cc(OP2(=O)NCc3ncccc3O2)ccc1Cl (configuration not stated) | > 100 µM | > 100 µM | > 100 µM | > 100 µM | > 100 µM | > 100 µM | > 100 µM | > 100 µM | > 100 µM | > 100 µM | > 100 µM | > 100 µM
O=C1CSC2(CC(/C=C/c3cccs3)=NN2c2cccc(S(=O)(=O)O)c2)N1c1nc2ccccc2s1 (configuration not stated) | > 100 µM | > 100 µM | > 100 µM | > 100 µM | > 100 µM | > 100 µM | > 100 µM | > 100 µM | > 100 µM | > 100 µM | > 100 µM | > 100 µM
O=C(O)C(O)C(O)C(O)C(O)CO (configuration not stated) | > 100 µM | > 100 µM | > 100 µM | > 100 µM | > 100 µM | > 100 µM | > 100 µM | > 100 µM | > 100 µM | > 100 µM | > 100 µM | > 100 µM
O=C(CNc1ccc(Cl)cc1Cl)Nn1c(-c2ccccc2)nc2ccccc2c1=O | 58.3 µM | 29.9 µM | 34.5 µM | 71.3 µM | 18.5 µM | 24.1 µM | 30.8 µM | 30.5 µM | 30.2 µM | 36.1 µM | 19.5 µM | 22.7 µM
COc1cc2c(cc1OCCCN1C(=O)c3cccc4cccc(c34)C1=O)N=C[C@@H]1CCCN1C2=O | > 100 µM | > 100 µM | > 100 µM | > 50.2 µM | > 63.6 µM | > 100 µM | > 100 µM | > 100 µM | > 100 µM | 40.6 µM | > 100 µM | > 58.2 µM
O=C(CCSC1=NCCCN1)c1ccc(F)cc1 | 41.9 µM | 31 µM | 32.4 µM | 14.8 µM | 36.4 µM | 45.1 µM | 32.4 µM | 43.6 µM | 47.6 µM | 11.8 µM | 32.9 µM | 40.6 µM
CC(C)N1CCN(c2ccc(OCC3COC(Cn4cncn4)(c4ccc(Cl)cc4Cl)O3)cc2)CC1 (configuration not stated) | 30.1 µM | 35.1 µM | 16.6 µM | 29.7 µM | 4.92 µM | 30.2 µM | > 20 µM | 30.7 µM | 15.8 µM | 3.69 µM | 5.66 µM | 30.8 µM
